In general, EC50 refers to the midpoint of the concentration-response curve.

SMILES strings stand for the structures.

This experiment relates to HCV 1b genotype replicon. Description: HCV replicon assay - qRT-PCR (HCV RNA detection). The experiment is classed as cell-based. The conditions noted are these: Hepatitis C virus, from the qRT-PCR or luciferase assay (not specified which), EC50 range class. The text has this: HCV replicon cell lines (kindly provided by R. Bartenschlager) isolated from colonies as described by Lohman et. al. (Lohman et al. (1999) Science 285: 110-113, expressly incorporated by reference in its entirety) and used for all experiments. The HCV replicon has the nucleic acid sequence set forth in EMBL Accession No.: AJ242651, the coding sequence of which is from nucleotides 1801 to 8406.
The coding sequence of the published HCV replicon was synthesized and subsequently assembled in a modified plasmid pBR322 (Promega, Madison, Wis.) using standard molecular biology techniques. One replicon cell line (“SGR 11-7”) stably expresses HCV replicon RNA which consists of (i) the HCV 5′UTR fused to the first 12 amino acids of the capsid protein, (ii) the neomycin phosphotransferase gene (neo), (iii) the IRES from encephalomyocarditis virus (EMCV), and (iv) HCV NS2 to NS5B genes and the HCV 3′UTR. Another replicon cell line (“Huh-luc/neo-ET”) described by Vrolijk et. al. (Vrolijk et. al. (2003) Journal of Virological Methods 110:201-209, expressly incorporated by reference in its entirety) stably expresses HCV replicon RNA which consists of (i) the HCV 5′UTR fused to the first 12 amino acids of the capsid protein, (ii) the firefly luciferase reporter gene, (iii) the ubiquitin gene, (iv) the neomycin phosphotransferase gene (neo), (v) the IRES from encephalomyocarditis virus (EMCV), and (vi) HCV NS3 to NS5B genes that harbor cell culture adaptive mutations (E1202G, T12801, K1846T) and the HCV 3′UTR.
These cell lines were maintained at 37° C., 5% CO2, 100% relative humidity in DMEM (Cat#11965-084, Invitrogen), with 10% fetal calf serum (“FCS”, Invitrogen), 1% non-essential amino acids (Invitrogen), 1% of Glutamax (Invitrogen), 1% of 1 OOX penicillin/streptomycin (Cat#15140-122, Invitrogen) and Geneticin (Cat#10131-027, Invitrogen) at 0.75 mg/ml or 0.5 mg/ml for 11-7 and Huh-luc/neo-ET cells, respectively.
EC50 values of single agent compounds and combinations were determined by HCV RNA detection using quantitative RT-PCR, according to the manufacturer's instructions, with a TAQMAN® One-Step RT-PCR Master Mix Reagents Kit (Cat# AB 4309169, Applied Biosystems) on an ABI Model 7500 thermocycler. The TaqMan primers used for detecting and quantifying HCV RNA were obtained from Integrated DNA Technologies. HCV RNA was normalized to GAPDH RNA levels in drug-treated cells, which is detected and quantified using the Human GAPDH Endogenous Control Mix (Applied Biosystems, AB 4310884E). Total cellular RNA is purified from 96-well plates using the RNAqueous 96 kit (Ambion, Cat# AM1812). Chemical agent cytotoxicity is evaluated using an MTS assay according to the manufacturer's directions (Promega).
The compounds of the present invention can be effective against the HCV 1b genotype. It should also be understood that the compounds of the present invention can inhibit multiple genotypes of HCV. In one embodiment compound of the present invention are active against the 1a, 1b, 2a, 2b, 3a, 4a, and 5a genotypes. […] EC50 ranges against HCV 1b are as follows: A>10 nM; B1-10 nM; C<1 nM.
Background: Replicon systems follow genome replication, usually without infectious particles.
As to `COC(=O)N[C@H](C(=O)N1CCC[C@H]1c1nc2ccc(C#Cc3ccc(-c4cnc([C@@H]5CCCN5C(=O)N(CC(C)C)NC(=O)OC)[nH]4)cc3)cc2[nH]1)C(C)C` [Example 372], the EC50 was less than 1 nM. As for `CCN(NC(=O)OC)C(=O)N1CCC[C@H]1c1ncc(-c2ccc(-c3ccc(-c4cnc([C@@H]5CCCN5C(=O)[C@@H](NC(=O)OC)C(C)C)[nH]4)cc3)cc2)[nH]1` [Example 375], the EC50 was less than 1 nM. Consider `COC(=O)N[C@H](C(=O)N1CCC[C@H]1c1ncc(-c2ccc(-c3ccc(-c4cnc([C@@H]5CCCN5C(=O)N(NC(=O)OC)C(C)C)[nH]4)cc3)cc2)[nH]1)C(C)C` [Example 374], for which the EC50 was less than 1 nM.

Regarding `COC(=O)NN(C(=O)N1CCC[C@H]1c1ncc(-c2ccc(-c3ccc(-c4cnc([C@@H]5CCCN5C(=O)N(NC(=O)OC)C(C)C)[nH]4)cc3)cc2)[nH]1)C(C)C` [Example 373], the EC50 is less than 1 nM.

`CCN(NC(=O)OC)C(=O)N1CCC[C@H]1c1ncc(-c2ccc(C#Cc3ccc4nc([C@@H]5CCCN5C(=O)[C@@H](NC(=O)OC)C(C)C)[nH]c4c3)cc2)[nH]1` [Example 370]: the EC50 was less than 1 nM. In the case of `CCCN(NC(=O)OC)C(=O)N1CCC[C@H]1c1ncc(-c2ccc(C#Cc3ccc4nc([C@@H]5CCCN5C(=O)[C@@H](NC(=O)OC)C(C)C)[nH]c4c3)cc2)[nH]1` [Example 371], the EC50 is less than 1 nM. On to `COC(=O)N[C@H](C(=O)N1CCC[C@H]1c1ncc(-c2ccc3cc(-c4ccc5[nH]c(N6CCCN6C(=O)[C@@H](NC(=O)OC)C(C)C)nc5c4)ccc3c2)[nH]1)C(C)C` [Example 368], for which the EC50 is less than 1 nM. For the compound `COC(=O)N[C@H](C(=O)N1CCC[C@H]1c1nc2ccc(C#Cc3ccc(-c4cnc([C@@H]5CCCN5C(=O)N(NC(=O)OC)C(C)C)[nH]4)cc3)cc2[nH]1)C(C)C` [Example 369], the EC50 is less than 1 nM.

The values above are taken from patent publication US8221737B2, “Hepatitis C virus inhibitors” (Enanta Pharmaceuticals, Inc., priority 2009, dated 2012).
